This experiment addresses T1, individually expressed C half of ABCR (Homo sapiens, UniProt P78363).
T1 construct: The cDNAs coding for the N-half (amino acids 1-1325) and C-half (amino acids 1326-2273) of ABCR; made in house; host or cells: COS-1 cells
T1 sequence (P78363 1326-2273): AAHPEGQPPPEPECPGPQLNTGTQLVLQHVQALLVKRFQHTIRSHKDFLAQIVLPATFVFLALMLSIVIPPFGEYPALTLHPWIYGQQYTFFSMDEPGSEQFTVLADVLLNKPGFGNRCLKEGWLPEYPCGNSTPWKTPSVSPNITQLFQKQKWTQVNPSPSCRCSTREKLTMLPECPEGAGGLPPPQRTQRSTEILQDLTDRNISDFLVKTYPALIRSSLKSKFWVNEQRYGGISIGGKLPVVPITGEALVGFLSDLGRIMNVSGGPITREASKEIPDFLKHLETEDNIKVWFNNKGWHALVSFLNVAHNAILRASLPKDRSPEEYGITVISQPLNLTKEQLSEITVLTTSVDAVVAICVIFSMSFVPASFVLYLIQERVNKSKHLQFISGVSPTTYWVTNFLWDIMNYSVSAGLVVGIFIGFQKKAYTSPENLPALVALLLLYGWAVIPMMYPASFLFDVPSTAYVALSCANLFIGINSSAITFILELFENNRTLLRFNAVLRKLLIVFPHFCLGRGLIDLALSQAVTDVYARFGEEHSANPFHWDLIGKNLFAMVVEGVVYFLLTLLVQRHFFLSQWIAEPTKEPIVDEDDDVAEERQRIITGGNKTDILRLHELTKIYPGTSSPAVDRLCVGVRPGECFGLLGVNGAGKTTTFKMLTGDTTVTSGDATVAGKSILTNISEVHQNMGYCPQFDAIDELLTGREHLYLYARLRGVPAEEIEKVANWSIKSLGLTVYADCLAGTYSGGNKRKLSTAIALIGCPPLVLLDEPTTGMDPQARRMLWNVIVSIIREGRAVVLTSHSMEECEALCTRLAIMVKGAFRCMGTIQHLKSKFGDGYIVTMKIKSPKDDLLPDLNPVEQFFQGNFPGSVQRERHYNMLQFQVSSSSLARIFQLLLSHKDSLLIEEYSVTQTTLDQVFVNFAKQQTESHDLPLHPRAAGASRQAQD
Nature of the experiment: Retinal-stimulated ATPase activity of purified protein reconstituted in lipid vesicles. It counts as biochemical. As to conditions: individually expressed in COS-1 cells, 50 μM [α32P]ATP. On the procedure: Membranes (from two 10 cm dishes) were solubilized in 0.5 ml of 1% Triton-X100 in Buffer A (140 mM NaCl, 20 mM Tris-HCl, pH 7.4) for 20 min on ice. For ATPase assays, the membrane preparation step was omitted and the cell suspension was solubilized directly in Buffer B (10 mg/ml soybean phospholipids, 10% glycerol, 1 mM dithiothreitol, 100 mM NaCl, 3 mM MgCl2, 50 mM NaHEPES, pH 7.4) containing 18 mM CHAPS. The supernatant after a 10 min centrifugation at 40,000 rpm (TLA100.4 rotor) was mixed with 50 μl Rim3F4 Sepharose 2B for 1 h at 4° C. The beads were washed 6 times in Buffer A containing 0.2% Triton X-100 or Buffer B containing 10 mM CHAPS and eluted with 4% SDS (for electrophoresis) or 0.2 mg/ml Rim3F4 peptide (for reconstitution and determination of ATPase activity). Purified protein (24 μl) was incubated with 6 μl of 50 mg/ml lipid (1:1 mixture of dioleoylphosphatidylethanolamine and brain polar lipid, by weight) and 3 μl n-octylglucoside for 30 min on ice. The mixture was diluted rapidly with 200 μl of Buffer C (1 mM dithiothreitol, 140 mM NaCl, 25 mM NaHEPES, pH 7.4) and passed through a 200 μl Extracti-gel column (Pierce). The flow-through containing the reconstituted protein was used for determination of ATPase activity.
ATPase activity was measured as described previously (Ahn, J., Wong, J. T., and Molday, R. S. (2000) J Biol Chem 275(27), 20399-405) using 50 μM [α^32P]ATP and thin layer chromatography. The all-trans retinal concentration was determined spectrophotometrically (λ383 nm=42.88 mM^−1 cm^−1). Protein concentration was estimated from the eluate before reconstitution by laser densitometry of Coomassie blue stained gels using bovine serum albumin as a standard. […] Direct protein measurements after reconstitution by densitometry of Western blots was about half of that in the eluate. […]
ATPase Activity of Expressed N and C Halves—The basal and retinal activated ATPase activity of full-length ABCR and the N and C halves individually or co-expressed in COS-1 cells was determined after immunoaffinity purification and reconstitution into lipid vesicles. […]

As for `CC1=C(/C=C/C(C)=C/C=C/C(C)=C/C=O)C(C)(C)CCC1` [all-trans retinal], the “stimulation of ATPase activity” value was “not stimulated”.
